Laboratory results published in patent US12145939B2, “Substituted [1,2,4]triazolo[4,3-a]pyrazines as ion channel modulators” (PRAXIS PRECISION MEDICINES, INC., priority 2019, dated 2024).

Target: T1, human NaV1.6 (hNaV1.6) (Homo sapiens, UniProt Q9UQD0)
T1 construct: expressed in transfected cells; host or cells: HEK-293
Test: Modulation of late sodium current (INaL) at hNaV1.6, PatchXpress electrophysiology
Assay type: cell-based
Settings: HEK293, HEK-293 cells expressing recombinant human NaV 1.6, late current evoked by 300 nM ATX-II, read-out: NaV 1.6 Assay Data (percent inhibition of INaL at hNaV1.6)
Method: Functional characterization of exemplary compounds to modulate INaL expressed by the NaV1.6 voltage-gated sodium channel was accomplished using the PatchXpress™ high throughput electrophysiology platform (Molecular Devices, Sunnyvale, CA). HEK-293 cells expressing recombinant, human NaV1.6 (hNaV1.6) were grown in DMEM/high-glucose Dulbecco's modified, 10% FBS, 2 mM sodium pyruvate, 10 mM HEPES and 400 μg/mL G418. Cells were grown to 50%-80% confluency prior to harvesting. Trypsinized cells were washed, allowed to recover for 1 hour and then resuspended in extracellular recording solution at a concentration of 1×10^6 cells/ml. The onboard liquid handling facility of the PatchXpress was used for dispensing cells and applying test compounds. NaV late currents were evoked by the application of 300 nM ATX-II. INaL was evoked by depolarizing pulses to 0 mV for 200 ms from a non-inactivating holding potential (e.g., −120 mV) at a frequency of 0.1 Hz. INaL amplitude and stability were determined by analyzing the mean current amplitude over the final 20 ms of the test pulse. Following steady state block with exemplary compounds (e.g., as described herein), a Na+ free solution containing an impermeant cation (e.g., Choline or NDMG) was added to confirm the identity of the sodium current. Percent steady-state inhibition of INaL was calculated as: […], where INaL_compound and INaL_control represent INaL recorded in the presence or absence of compound, respectively.
Results from this assay relating to percent inhibition of INaL at hNaV1.6 (measured using a procedure similar to described above but using HEK-293 cells expressing recombinant, human NaV 1.6 (h NaV 1.6) at 1 μM are summarized in Table 1 below. In this table, “A” indicates inhibition of less than 30%; “B” indicates inhibition of between about 30% to about 70%; and “C” indicates inhibition of greater than 70%. “N/A” indicates not available.

T1 sequence (Q9UQD0 whole entry): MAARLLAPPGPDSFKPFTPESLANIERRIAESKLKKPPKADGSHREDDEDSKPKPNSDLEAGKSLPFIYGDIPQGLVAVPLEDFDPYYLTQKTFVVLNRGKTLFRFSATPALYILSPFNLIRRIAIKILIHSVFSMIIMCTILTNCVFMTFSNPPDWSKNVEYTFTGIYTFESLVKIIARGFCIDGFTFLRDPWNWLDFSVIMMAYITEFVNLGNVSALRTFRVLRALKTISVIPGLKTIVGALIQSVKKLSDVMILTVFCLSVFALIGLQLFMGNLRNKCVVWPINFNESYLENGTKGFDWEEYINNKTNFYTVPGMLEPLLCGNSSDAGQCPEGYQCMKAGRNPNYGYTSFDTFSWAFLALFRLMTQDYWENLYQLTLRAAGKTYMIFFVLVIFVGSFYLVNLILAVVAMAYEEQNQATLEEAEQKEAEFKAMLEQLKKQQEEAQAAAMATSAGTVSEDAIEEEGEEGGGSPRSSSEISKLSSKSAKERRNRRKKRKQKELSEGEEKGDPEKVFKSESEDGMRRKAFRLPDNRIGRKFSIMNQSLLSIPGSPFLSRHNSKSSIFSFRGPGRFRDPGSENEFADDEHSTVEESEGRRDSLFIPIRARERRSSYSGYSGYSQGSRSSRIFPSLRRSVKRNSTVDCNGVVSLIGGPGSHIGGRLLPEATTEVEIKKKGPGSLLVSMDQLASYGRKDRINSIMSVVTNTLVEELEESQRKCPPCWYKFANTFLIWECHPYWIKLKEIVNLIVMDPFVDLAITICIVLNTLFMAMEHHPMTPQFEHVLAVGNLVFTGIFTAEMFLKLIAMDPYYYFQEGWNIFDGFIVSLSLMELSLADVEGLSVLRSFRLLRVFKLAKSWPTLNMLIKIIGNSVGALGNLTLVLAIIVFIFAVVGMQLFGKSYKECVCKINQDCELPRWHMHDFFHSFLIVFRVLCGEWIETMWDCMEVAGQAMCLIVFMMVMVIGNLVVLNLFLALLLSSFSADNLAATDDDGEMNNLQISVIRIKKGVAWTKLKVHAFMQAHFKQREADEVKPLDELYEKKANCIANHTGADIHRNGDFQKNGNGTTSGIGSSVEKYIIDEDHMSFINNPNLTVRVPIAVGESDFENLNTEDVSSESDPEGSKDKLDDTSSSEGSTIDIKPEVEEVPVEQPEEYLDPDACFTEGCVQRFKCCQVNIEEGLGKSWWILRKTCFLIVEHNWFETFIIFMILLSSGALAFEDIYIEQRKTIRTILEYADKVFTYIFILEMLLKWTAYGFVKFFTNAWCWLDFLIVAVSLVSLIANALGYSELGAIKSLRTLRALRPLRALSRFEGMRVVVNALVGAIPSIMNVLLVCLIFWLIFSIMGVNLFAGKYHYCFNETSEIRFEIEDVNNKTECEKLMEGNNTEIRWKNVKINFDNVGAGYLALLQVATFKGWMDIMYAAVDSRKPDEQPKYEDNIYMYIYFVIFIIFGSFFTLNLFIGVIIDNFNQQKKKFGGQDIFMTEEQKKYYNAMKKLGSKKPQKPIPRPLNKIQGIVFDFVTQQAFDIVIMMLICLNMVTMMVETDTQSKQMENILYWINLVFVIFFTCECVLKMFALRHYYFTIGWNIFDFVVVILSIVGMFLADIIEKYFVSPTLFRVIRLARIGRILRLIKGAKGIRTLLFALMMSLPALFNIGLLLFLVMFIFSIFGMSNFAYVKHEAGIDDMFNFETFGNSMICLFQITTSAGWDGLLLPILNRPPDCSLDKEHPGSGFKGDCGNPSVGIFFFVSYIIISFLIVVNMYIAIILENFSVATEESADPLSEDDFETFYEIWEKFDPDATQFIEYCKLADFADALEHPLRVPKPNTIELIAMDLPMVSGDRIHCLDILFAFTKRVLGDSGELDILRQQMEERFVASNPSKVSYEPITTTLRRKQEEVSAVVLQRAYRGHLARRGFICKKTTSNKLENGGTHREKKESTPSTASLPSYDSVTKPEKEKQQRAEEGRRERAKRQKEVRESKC

inhibition at 1 µM [%]	Compound
< 30	COC(C)(C)c1nnc2cnc(-c3cnc(OCC(F)(F)F)c(F)c3)cn12 [Compound II-4, 6-(5-fluoro-6-(2,2,2-trifluoroethoxy)pyridin-3-yl)-3-(2-methoxypropan-2-yl)-[1,2,4]triazolo[4,3-a]pyrazine]
< 30	COC(C)(C)c1nnc2cnc(-c3ccc(OCC(F)(F)F)nc3)cn12 [Compound II-5, 3-(2-methoxypropan-2-yl)-6-(6-(2,2,2-trifluoroethoxy)pyridin-3-yl)-[1,2,4]triazolo[4,3-a]pyrazine]
30 to 70	C[C@H](Oc1ccc(-c2cn3c(C(F)(F)Cl)nnc3cn2)cn1)C(F)(F)F [Compound II-7, (S)-3-(chlorodifluoromethyl)-6-(6-((1,1,1-trifluoropropan-2-yl)oxy)pyridin-3-yl)-[1,2,4]triazolo[4,3-a]pyrazine]
30 to 70	COC(C)(C)c1nnc2cnc(-c3cnc(O[C@H](C)C(F)(F)F)c(F)c3)cn12 [Compound II-8, (R)-6-(5-fluoro-6-((1,1,1-trifluoropropan-2-yl)oxy)pyridin-3-yl)-3-(2-methoxypropan-2-yl)-[1,2,4]triazolo[4,3-a]pyrazine]
30 to 70	COC(C)(C)c1nnc2cnc(-c3cnc(O[C@@H](C)C(F)(F)F)c(F)c3)cn12 [Compound II-9, (S)-6-(5-fluoro-6-((1,1,1-trifluoropropan-2-yl)oxy)pyridin-3-yl)-3-(2-methoxypropan-2-yl)-[1,2,4]triazolo[4,3-a]pyrazine]
> 70	COC(C)(C)c1nnc2cnc(-c3cnc(OC(C)(C)C(F)(F)F)c(F)c3)cn12 [Compound II-10, 6-[5-fluoro-6-(2,2,2-trifluoro-1,1-dimethyl-ethoxy)-3-pyridyl]-3-(1-methoxy-1-methyl-ethyl)-[1,2,4]triazolo[4,3-a]pyrazine]
30 to 70	CCOC(C)(C)c1nnc2cnc(-c3cnc(OC(C)(C)C(F)(F)F)c(F)c3)cn12 [Compound II-11, 3-(2-ethoxypropan-2-yl)-6-(5-fluoro-6-((1,1,1-trifluoro-2-methylpropan-2-yl)oxy)pyridin-3-yl)-[1,2,4]triazolo[4,3-a]pyrazine]
30 to 70	COC(C)(C)c1nnc2cnc(-c3ccc(OC(C)(C)C(F)(F)F)nc3)cn12 [Compound II-14, 3-(1-methoxy-1-methyl-ethyl)-6-[6-(2,2,2-trifluoro-1,1-dimethyl-ethoxy)-3-pyridyl]-[1,2,4]triazolo[4,3-a]pyrazine]
30 to 70	CCOC(C)(C)c1nnc2cnc(-c3ccc(OC(C)(C)C(F)(F)F)nc3)cn12 [Compound II-15, 3-(2-ethoxypropan-2-yl)-6-(6-((1,1,1-trifluoro-2-methylpropan-2-yl)oxy)pyridin-3-yl)-[1,2,4]triazolo[4,3-a]pyrazine]
> 70	FC(F)(F)Oc1ccc(-c2cn3c(C(F)(F)F)nnc3cn2)c(C2CC2)c1 [Compound III-1, 6-[2-cyclopropyl-4-(trifluoromethoxy)phenyl]-3-(trifluoromethyl)-[1,2,4]triazolo[4,3-a]pyrazine]
> 70	CCOC(F)(F)c1nnc2cnc(-c3ccc(OC(F)(F)F)cc3C3CC3)cn12 [Compound III-2, 6-[2-cyclopropyl-4-(trifluoromethoxy)phenyl]-3-[ethoxy(difluoro)methyl]-[1,2,4]triazolo[4,3-a]pyrazine]
30 to 70	CCOC(F)(F)c1nnc2cnc(-c3ccc(COCC(F)(F)F)cc3C)cn12 [Compound III-5, 3-[ethoxy(difluoro)methyl]-6-[2-methyl-4-(2,2,2-trifluoroethoxymethyl)phenyl]-[1,2,4]triazolo[4,3-a]pyrazine]
30 to 70	COC(F)(F)c1nnc2cnc(-c3ccc(COCC(F)(F)F)cc3C)cn12 [Compound III-6, 3-[difluoro(methoxy)methyl]-6-[2-methyl-4-(2,2,2-trifluoroethoxymethyl)phenyl]-[1,2,4]triazolo[4,3-a]pyrazine]
30 to 70	CCOC(F)(F)c1nnc2cnc(-c3ccc(COCC(F)(F)F)cc3)cn12 [Compound III-11, 3-(ethoxydifluoromethyl)-6-(4-((2,2,2-trifluoroethoxy)methyl)phenyl)-[1,2,4]triazolo[4,3-a]pyrazine]
30 to 70	COCC(F)(F)Oc1ccc(-c2cn3c(C(F)(F)F)nnc3cn2)cc1 [Compound III-12, 6-(4-(1,1-difluoro-2-methoxyethoxy)phenyl)-3-(trifluoromethyl)-[1,2,4]triazolo[4,3-a]pyrazine]
> 70	C[C@@H](Oc1ccc(-c2cn3c(C(F)F)nnc3cn2)cn1)C(F)(F)F [Compound III-13, (R)-3-(difluoromethyl)-6-(6-((1,1,1-trifluoropropan-2-yl)oxy)pyridin-3-yl)-[1,2,4]triazolo[4,3-a]pyrazine]
> 70	FC(F)(F)c1nnc2cnc(-c3ccc(O[C@@H](C4CC4)C(F)(F)F)nc3)cn12 [Compound III-15, (S)-6-(6-(1-cyclopropyl-2,2,2-trifluoroethoxy)pyridin-3-yl)-3-(trifluoromethyl)-[1,2,4]triazolo[4,3-a]pyrazine]
> 70	C[C@H](Oc1ccc(-c2cn3c(C(F)F)nnc3cn2)cn1)C(F)(F)F [Compound III-16, (S)-3-(difluoromethyl)-6-(6-((1,1,1-trifluoropropan-2-yl)oxy)pyridin-3-yl)-[1,2,4]triazolo[4,3-a]pyrazine]

Compound	inhibition at 1 µM [%]
COC(C)(C)c1nnc2cnc(-c3cnc(OC4(C(F)(F)F)CCC4)c(F)c3)cn12 [Compound II-12, 6-(5-fluoro-6-(1-(trifluoromethyl)cyclobutoxy)pyridin-3-yl)-3-(2-methoxypropan-2-yl)-[1,2,4]triazolo[4,3-a]pyrazine]	> 70
COC(C)(C)c1nnc2cnc(-c3ccc(OC4(C(F)(F)F)CCC4)nc3)cn12 [Compound II-13, 3-(1-methoxy-1-methyl-ethyl)-6-[6-[1-(trifluoromethyl)cyclobutoxy]-3-pyridyl]-[1,2,4]triazolo[4,3-a]pyrazine]	30 to 70
